Test results from patent US12594276B2, “Inhibitors of human immunodeficiency virus replication” (ViiV Healthcare UK (No.5) Limited, priority 2024, dated 2026).
Read-outs that look alike come from different tables or passages of the source.

Legend:
[1] = Compound cytotoxicity, XTT-based colorimetric assay; assay type: cell-based; conditions: human
How it was run: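 Follows the antiviral assay procedure, but with uninfected MT2 cells. On day 4, cell viability is measured by XTT-based colorimetry, giving CC50 values.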

[2] = test system: recombinant NL4-3 virus (nef section replaced with Renilla luciferase gene) in MT-2 cells; experiment: HIV cell culture assay (antiviral activity, luciferase readout); assay type: cell-based; conditions: Renilla, NL43, MT-2 cells infected for 4-5 days with recombinant NL4-3 Renilla luciferase virus
How it was run: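 Compound activity was measured as reduction of luciferase in MT-2 cells infected for 4-5 days with serially diluted compound present. EC50 values were calculated with the median effect equation.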

[3] = uninfected MT2 cells, day 4, XTT, read-out: CC50

Compound	CC50 at 4 days [1, 3]	EC50 [2]	CC50 at 4 days [1]
Cc1cc(C2(F)CCC(F)(F)CC2)nc2nc([C@H](Cc3cc(F)cc(F)c3)NC(=O)Cn3nc(C4CC4)c4c3C[C@@H]3C[C@H]43)n(-c3ccc(Cl)c4c(NS(C)(=O)=O)nn(CCN5C[C@@H](C)OC(C)(C)C5)c34)c(=O)c12 (atropisomer, axis not shown; (P)) [Example 584, N-[(1S)-1-[(3P)-3-(4-chloro-3-methanesulfonamido-1-{2-[(6R)-2,2,6-trimethylmorpholin-4-yl]ethyl}-1H-indazol-7-yl)-5-methyl-4-oxo-7-(1,4,4-trifluorocyclohexyl)-3H,4H-pyrido[2,3-d]pyrimidin-2-yl]-2-(3,5-difluorophenyl)ethyl]-2-[(2S,4S)-9-cyclopropyl-7,8-diazatricyclo[4.3.0.0^2,^4]nona-1(6),8-dien-7-yl]acetamide]	> 20 nM	0.015 nM	–
Cc1cc(C2(F)CCC(F)(F)CC2)nc2nc([C@H](Cc3cc(F)cc(F)c3)NC(=O)Cn3nc(C4CC4)c4c3C[C@@H]3C[C@H]43)n(-c3ccc(Cl)c4c(NS(C)(=O)=O)nn(CCN5CCOC(C)(C)C5)c34)c(=O)c12 (atropisomer, axis not shown; (P)) [Example 585, N-[(1S)-1-[(3P)-3-{4-chloro-1-[2-(2,2-dimethylmorpholin-4-yl)ethyl]-3-methanesulfonamido-1H-indazol-7-yl}-5-methyl-4-oxo-7-(1,4,4-trifluorocyclohexyl)-3H,4H-pyrido[2,3-d]pyrimidin-2-yl]-2-(3,5-difluorophenyl)ethyl]-2-[(2S,4S)-9-cyclopropyl-7,8-diazatricyclo[4.3.0.0^2,^4]nona-1(6),8-dien-7-yl]acetamide]	> 20 nM	0.012 nM	–
Cc1cc(C2(F)CCC(F)(F)CC2)nc2nc([C@H](Cc3cc(F)cc(F)c3)NC(=O)Cn3nc(C4CC4)c4c3C[C@@H]3C[C@H]43)n(-c3ccc(Cl)c4c(NS(C)(=O)=O)nn(CCN5CCOCC5(C)C)c34)c(=O)c12 (atropisomer, axis not shown; (P)) [Example 586, N-[(1S)-1-[(3P)-3-{4-chloro-1-[2-(3,3-dimethylmorpholin-4-yl)ethyl]-3-methanesulfonamido-1H-indazol-7-yl}-5-methyl-4-oxo-7-(1,4,4-trifluorocyclohexyl)-3H,4H-pyrido[2,3-d]pyrimidin-2-yl]-2-(3,5-difluorophenyl)ethyl]-2-[(2S,4S)-9-cyclopropyl-7,8-diazatricyclo[4.3.0.0^2,^4]nona-1(6),8-dien-7-yl]acetamide]	> 20 nM	0.016 nM	–
Cc1cc(C2(F)CCC(F)(F)CC2)nc2nc([C@H](Cc3cc(F)cc(F)c3)NC(=O)Cn3nc(C(F)F)c4c3C(F)(F)[C@@H]3C[C@H]43)n(-c3ccc(Cl)c4c(NS(C)(=O)=O)nn(CCN5C[C@H]6CC[C@@H](C5)O6)c34)c(=O)c12 (atropisomer, axis not shown; (P)) [Example 589, N-[(1S)-1-[(3P)-3-(4-chloro-3-methanesulfonamido-1-{2-[(1R,5S)-8-oxa-3-azabicyclo[3.2.1]octan-3-yl]ethyl}-1H-indazol-7-yl)-5-methyl-4-oxo-7-(1,4,4-trifluorocyclohexyl)-3H, 4H-pyrido[2,3-d]pyrimidin-2-yl]-2-(3,5-difluorophenyl)ethyl]-2-[(2S,4R)-9-(difluoromethyl)-5,5-difluoro-7,8-diazatricyclo[4.3.0.0^2,^4]nona-1(6),8-dien-7-yl]acetamide]	> 20 nM	0.005 nM	–
Cc1cc(C2(F)CCC(F)(F)CC2)nc2nc([C@H](Cc3cc(F)cc(F)c3)NC(=O)Cn3nc(C(F)F)c4c3C(F)(F)[C@@H]3C[C@H]43)n(-c3ccc(Cl)c4c(NS(C)(=O)=O)nn(CCN5[C@@H]6CC[C@H]5COC6)c34)c(=O)c12 (atropisomer, axis not shown; (P)) [Example 590, N-[(1S)-1-[(3P)-3-(4-chloro-3-methanesulfonamido-1-{2-[(1R,5S)-3-oxa-8-azabicyclo[3.2.1]octan-8-yl]ethyl}-1H-indazol-7-yl)-5-methyl-4-oxo-7-(1,4,4-trifluorocyclohexyl)-3H,4H-pyrido[2,3-d]pyrimidin-2-yl]-2-(3,5-difluorophenyl)ethyl]-2-[(2S,4R)-9-(difluoromethyl)-5,5-difluoro-7,8-diazatricyclo[4.3.0.0^2,^4]nona-1(6),8-dien-7-yl]acetamide]	–	0.013 nM	> 20 nM
Cc1cc(C2(F)CCC(F)(F)CC2)nc2nc([C@H](Cc3cc(F)cc(F)c3)NC(=O)Cn3nc(C4CC4)c4c3C[C@@H]3C[C@H]43)n(-c3ccc(Cl)c4c(NS(C)(=O)=O)nn(CCN5C[C@H]6CC[C@@H](C5)O6)c34)c(=O)c12 (atropisomer, axis not shown; (P)) [Example 592, N-[(1S)-1-[(3P)-3-(4-chloro-3-methanesulfonamido-1-{2-[(1R,5S)-8-oxa-3-azabicyclo[3.2.1]octan-3-yl]ethyl}-1H-indazol-7-yl)-5-methyl-4-oxo-7-(1,4,4-trifluorocyclohexyl)-3H,4H-pyrido[2,3-d]pyrimidin-2-yl]-2-(3,5-difluorophenyl)ethyl]-2-[(2S,4S)-9-cyclopropyl-7,8-diazatricyclo[4.3.0.0^2,^4]nona-1(6),8-dien-7-yl]acetamide]	> 20 nM	0.006 nM	–
Cc1cc(C2(F)CCC(F)(F)CC2)nc2nc([C@H](Cc3cc(F)cc(F)c3)NC(=O)Cn3nc(C4CC4)c4c3C[C@@H]3C[C@H]43)n(-c3ccc(Cl)c4c(NS(C)(=O)=O)nn(CCN5[C@@H]6CC[C@H]5COC6)c34)c(=O)c12 (atropisomer, axis not shown; (P)) [Example 593, N-[(1S)-1-[(3P)-3-(4-chloro-3-methanesulfonamido-1-{2-[(1R,5S)-3-oxa-8-azabicyclo[3.2.1]octan-8-yl]ethyl}-1H-indazol-7-yl)-5-methyl-4-oxo-7-(1,4,4-trifluorocyclohexyl)-3H,4H-pyrido[2,3-d]pyrimidin-2-yl]-2-(3,5-difluorophenyl)ethyl]-2-[(2S,4S)-9-cyclopropyl-7,8-diazatricyclo[4.3.0.0^2,^4]nona-1(6),8-dien-7-yl]acetamide]	–	0.017 nM	> 20 nM
Cc1cc(C2(F)CCC(F)(F)CC2)nc2nc([C@H](Cc3cc(F)cc(F)c3)NC(=O)Cn3nc(C(F)(F)F)c4c3C(F)(F)[C@@H]3C[C@H]43)n(-c3ccc(Cl)c4c(NS(C)(=O)=O)nn(CCN5C[C@@H](C)O[C@@H](C)C5)c34)c(=O)c12 (atropisomer, axis not shown; (P)) [Example 594, N-[(1S)-1-[(3P)-3-(4-chloro-1-{2-[(2R,6S)-2,6-dimethylmorpholin-4-yl]ethyl}-3-methanesulfonamido-1H-indazol-7-yl)-5-methyl-4-oxo-7-(1,4,4-trifluorocyclohexyl)-3H,4H-pyrido[2,3-d]pyrimidin-2-yl]-2-(3,5-difluorophenyl)ethyl]-2-[(2S,4R)-5,5-difluoro-9-(trifluoromethyl)-7,8-diazatricyclo[4.3.0.0^2,^4]nona-1(6),8-dien-7-yl]acetamide]	> 20 nM	0.011 nM	–
Cc1cc(C2(F)CCC(F)(F)CC2)nc2nc([C@H](Cc3cc(F)cc(F)c3)NC(=O)Cn3nc(C4CC4)c4c3C(F)(F)[C@@H]3C[C@H]43)n(-c3ccc(Cl)c4c(NS(C)(=O)=O)nn(CCN5C[C@@H](C)O[C@@H](C)C5)c34)c(=O)c12 (atropisomer, axis not shown; (P)) [Example 595, N-[(1S)-1-[(3P)-3-(4-chloro-1-{2-[(2R,6S)-2,6-dimethylmorpholin-4-yl]ethyl}-3-methanesulfonamido-1H-indazol-7-yl)-5-methyl-4-oxo-7-(1,4,4-trifluorocyclohexyl)-3H,4H-pyrido[2,3-d]pyrimidin-2-yl]-2-(3,5-difluorophenyl)ethyl]-2-[(2S,4R)-9-cyclopropyl-5,5-difluoro-7,8-diazatricyclo[4.3.0.0^2,^4]nona-1(6),8-dien-7-yl]acetamide]	> 20 nM	0.014 nM	–
Cc1cc(C2(F)CCC(F)(F)CC2)nc2nc([C@H](Cc3cc(F)cc(F)c3)NC(=O)Cn3nc(C(F)F)c4c3C[C@@H]3C[C@H]43)n(-c3ccc(Cl)c4c(NS(C)(=O)=O)nn(CCN5C[C@@H](C)O[C@@H](C)C5)c34)c(=O)c12 (atropisomer, axis not shown; (P)) [Example 596, N-[(1S)-1-[(3P)-3-(4-chloro-1-{2-[(2R,6S)-2,6-dimethylmorpholin-4-yl]ethyl}-3-methanesulfonamido-1H-indazol-7-yl)-5-methyl-4-oxo-7-(1,4,4-trifluorocyclohexyl)-3H,4H-pyrido[2,3-d]pyrimidin-2-yl]-2-(3,5-difluorophenyl)ethyl]-2-[(2S,4S)-9-(difluoromethyl)-7,8-diazatricyclo[4.3.0.0^2,^4]nona-1(6),8-dien-7-yl]acetamide]	> 20 nM	0.029 nM	–
Cc1cc(C2(F)CCC(F)(F)CC2)nc2nc([C@H](Cc3cc(F)cc(F)c3)NC(=O)Cn3nc(C(F)(F)F)c4c3C[C@@H]3C[C@H]43)n(-c3ccc(Cl)c4c(NS(C)(=O)=O)nn(CCN5C[C@@H](C)O[C@@H](C)C5)c34)c(=O)c12 (atropisomer, axis not shown; (P)) [Example 597, N-[(1S)-1-[(3P)-3-(4-chloro-1-{2-[(2R,6S)-2,6-dimethylmorpholin-4-yl]ethyl}-3-methanesulfonamido-1H-indazol-7-yl)-5-methyl-4-oxo-7-(1,4,4-trifluorocyclohexyl)-3H,4H-pyrido[2,3-d]pyrimidin-2-yl]-2-(3,5-difluorophenyl)ethyl]-2-[(2S,4S)-9-(trifluoromethyl)-7,8-diazatricyclo[4.3.0.0^2,^4]nona-1(6),8-dien-7-yl]acetamide]	> 20 nM	0.021 nM	–
